Assay results published in article PMC7078208, “Interaction of SHP-2 SH2 domains with PD-1 ITSM induces PD-1 dimerization and SHP-2 activation” (Communications Biology, 2020).
Square brackets hold non-standard residues; d marks the D form. Ends that are not written are not given here. pY = N[C@@H](Cc1ccc(OP(=O)(O)O)cc1)C(=O)O

Experiments:
[1] = target: T1, t-SHP-2 (SHP-2 tandem SH2 domains, amino acids 1-225) (Homo sapiens, UniProt Q06124); assay: Isothermal titration calorimetry of PD-1 phosphopeptides with t-SHP-2; assay type: binding; details: for Kd: ITC, MicroCal ITC200, peptide 50-100 µM titrated into t-SHP-2 3-5 µM, 19 injections, 20 °C, 50 mM HEPES pH 7.4, 100 mM NaCl, 5 mM TCEP
T1 construct: made in house
T1 sequence (Q06124 1-225): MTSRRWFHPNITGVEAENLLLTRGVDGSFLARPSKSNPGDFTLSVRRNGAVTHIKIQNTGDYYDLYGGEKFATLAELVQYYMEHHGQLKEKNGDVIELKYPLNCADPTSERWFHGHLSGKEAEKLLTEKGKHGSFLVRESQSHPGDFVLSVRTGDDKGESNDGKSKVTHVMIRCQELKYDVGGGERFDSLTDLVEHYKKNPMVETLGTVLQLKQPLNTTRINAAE
Experimental: Isothermal titration calorimetry (ITC) was performed on a MicroCal ITC200 instrument (Malvern, Worcestershire, UK), using established methodology. Briefly, PD-1 phosphopeptides (PD-1cyto-pITIM-pITSM, PD-1cyto-ITIM-pITSM and PD-1cyto-pITIM-ITSM) and SHP-2 tandem-SH2 protein (t-SHP-2) were prepared in buffer containing 50 mM HEPES pH 7.4, 100 mM NaCl, 5 mM TCEP. Each peptide (50–100 µM) was titrated into a t-SHP-2 sample (3–5 µM) in a total of 19 injections at 20^ oC. We used reference power 6.0, initial delay 60 s and stirring speed 750 rpm. Injection volume was 0.4 µl for first injection and 2 µl for subsequent injections, injection duration was 0.8 s for first injection and 4 s for subsequent injections, with 150 s spacing and 5 s filter period. Reference cell was filled with sterile Milli-Q water. Controls of peptide titrations into buffer were run for baseline corrections. Data analysis was done using Origin 7.0 software.

PD1LgDM = assay: NanoBiT proximity assay (split luciferase) in HEK-293 cells; details: PD1SmDM + PD1LgDM + SHP2WT, read off a plot
SHP-2-WT = assay: SHP-2 phosphatase activity, DiFMUP substrate; assay type: biochemical

Work on CC[C@H](C)[C@H](NC(=O)[C@@H](NC(=O)[C@H](C)NC(=O)[C@H](Cc1ccc(OP(=O)(O)O)cc1)NC(=O)[C@H](CCC(=O)O)NC(=O)[C@@H](NC(=O)[C@H](CCC(N)=O)NC(=O)[C@H](CCC(=O)O)NC(=O)[C@@H]1CCCN1C(=O)[C@@H](NC(=O)[C@H](CS)NC(=O)[C@@H]1CCCN1C(=O)[C@@H](NC(=O)[C@@H]1CCCN1C(=O)[C@@H]1CCCN1C(=O)[C@H](CCC(=O)O)NC(=O)[C@@H]1CCCN1C(=O)[C@@H](NC(=O)[C@H](CCCCN)NC(=O)[C@H](CCC(=O)O)NC(=O)[C@H](CCCNC(=N)N)NC(=O)[C@H](Cc1c[nH]c2ccccc12)NC(=O)[C@H](CCC(N)=O)NC(=O)[C@H](Cc1ccccc1)NC(=O)[C@H](CC(=O)O)NC(=O)[C@H](CC(C)C)NC(=O)[C@H](CCC(=O)O)NC(=O)CNC(=O)[C@H](Cc1ccc(O)cc1)NC(=O)[C@H](CC(=O)O)NC(=O)[C@@H](NC(=O)[C@H](CO)NC(=O)[C@H](Cc1ccccc1)NC(=O)[C@@H](NC(=O)[C@@H]1CCCN1C(=O)[C@@H](NC(=O)[C@H](C)NC(=O)[C@@H](N)CO)C(C)C)C(C)C)C(C)C)[C@@H](C)O)C(C)C)C(C)C)[C@@H](C)O)[C@@H](C)O)C(=O)N[C@H](C(=O)N[C@@H](Cc1ccccc1)C(=O)N1CCC[C@H]1C(=O)N[C@@H](CO)C(=O)O)C(C)C [PD-1cyto-ITIM-pITSM] yielded a Kd [1] of 775 nM.
Molecule CC[C@H](C)[C@H](NC(=O)[C@@H](NC(=O)[C@H](C)NC(=O)[C@H](Cc1ccc(OP(=O)(O)O)cc1)NC(=O)[C@H](CCC(=O)O)NC(=O)[C@@H](NC(=O)[C@H](CCC(N)=O)NC(=O)[C@H](CCC(=O)O)NC(=O)[C@@H]1CCCN1C(=O)[C@@H](NC(=O)[C@H](CS)NC(=O)[C@@H]1CCCN1C(=O)[C@@H](NC(=O)[C@@H]1CCCN1C(=O)[C@@H]1CCCN1C(=O)[C@H](CCC(=O)O)NC(=O)[C@@H]1CCCN1C(=O)[C@@H](NC(=O)[C@H](CCCCN)NC(=O)[C@H](CCC(=O)O)NC(=O)[C@H](CCCNC(=N)N)NC(=O)[C@H](Cc1c[nH]c2ccccc12)NC(=O)[C@H](CCC(N)=O)NC(=O)[C@H](Cc1ccccc1)NC(=O)[C@H](CC(=O)O)NC(=O)[C@H](CC(C)C)NC(=O)[C@H](CCC(=O)O)NC(=O)CNC(=O)[C@H](Cc1ccc(OP(=O)(O)O)cc1)NC(=O)[C@H](CC(=O)O)NC(=O)[C@@H](NC(=O)[C@H](CO)NC(=O)[C@H](Cc1ccccc1)NC(=O)[C@@H](NC(=O)[C@@H]1CCCN1C(=O)[C@@H](NC(=O)[C@H](C)NC(=O)[C@@H](N)CO)C(C)C)C(C)C)C(C)C)[C@@H](C)O)C(C)C)C(C)C)[C@@H](C)O)[C@@H](C)O)C(=O)N[C@H](C(=O)N[C@@H](Cc1ccccc1)C(=O)N1CCC[C@H]1C(=O)N[C@@H](CO)C(=O)O)C(C)C [PD-1cyto-pITIM-pITSM] has a Kd [1] of 15.9 nM.
“PD-1 NanoBiT fusions (PD-1-LgBiT and PD-1-SmBiT) in HEK-293 cells with kinase-active Fyn (from UniProt Q15116) DM” was tested, and the response (PD1LgDM; Fyn (+) kinase active, parent: est. 255) was 90 RLU.
With “PD-1 NanoBiT fusions (PD-1-LgBiT and PD-1-SmBiT) in HEK-293 cells with kinase-inactive Fyn (from UniProt Q15116) DM” the response (PD1LgDM; Fyn (-) kinase inactive, parent: est. 100) was 88 RLU.
With “SAVPVFSVD(pY)GELDFQWREKTPEPPVPCVPEQTEYATIVFPS (SAVPVFSVD[pY]GELDFQWREKTPEPPVPCVPEQTEYATIVFPS) [PD-1cyto-pITIM-ITSM]” the “peptide: t-SHP-2 interaction by ITC” value ([1]; same conditions) was “not detectable”.
In the case of “TE(pY)ATIVFP-Ahx10-QTE(pY)ATIVFPS [bpITSM-Ahx10, bisphosphoryl ITSM peptide with 10-Ahx spacer]”, the “catalytic activity of SHP-2 compared to the negative control pIRSY727” value (SHP-2-WT; 3x lower enzyme concentration (0.5 µg/ml SHP-2-WT), Fig. 5e) is reported as “caused a higher increase in SHP-2 activation”.
In the case of “VD(pY)GELDFQ-Ahx4- QTE(pY)ATIVFPS [pITIM-pITSM, bisphosphoryl ITIM-ITSM peptide with 4-Ahx spacer]”, the “peptide concentration at which catalytic activity of SHP-2 is increased” value (SHP-2-WT; DiFMUP substrate, compared to pIRSY727 and pIRSY1172, Fig. 5a) is reported as “above 1 µM”.
For “VD(pY)GELDFQ-Ahx4-SVD(pY)GELDFQW [bpITIM, bisphosphoryl ITIM-ITIM peptide with 4-Ahx spacer]”, the “increase in the catalytic activity of SHP-2 compared to negative control pIRSY727” value (SHP-2-WT; DiFMUP substrate, Fig. 5a) was “did not induce an increase”.
